Laboratory results: BindingDB's records for doi:10.1021/acs.jmedchem.8b01821 (Rheinische Friedrich-Wilhelms-University of Bonn, 2019)

Legend:
[1] = Reversal of ABCB1-mediated multidrug resistance in human A2780/ADR cells assessed as potentiation of daunorubicin-induced cytotoxicity incubated for 72 hrs by MTT assay
[2] = Reversal of ABCC1 (unknown origin)-mediated multidrug resistance in MDCK2 cells co-expressing MRP1 (unknown origin) assessed as potentiation of daunorubicin-induced cytotoxicity incubated for 72 hrs by MTT assay
[3] = Reversal of ABCG2 (unknown origin)-mediated multidrug resistance in MDCK2 cells co-expressing BCRP (unknown origin) assessed as potentiation of SN-38-induced cytotoxicity incubated for 72 hrs by MTT assay
[4] = Reversal of ABCG2-mediated multidrug resistance in human MCF-7/MX cells assessed as potentiation of SN-38-induced cytotoxicity incubated for 72 hrs by MTT assay
[5] = Reversal of ABCC1-mediated multidrug resistance in human H69AR cells assessed as potentiation of daunorubicin-induced cytotoxicity incubated for 72 hrs by MTT assay
[6] = Reversal of ABCB1 (unknown origin)-mediated multidrug resistance in MDCK2 cells co-expressing MDR1 (unknown origin) assessed as potentiation of daunorubicin-induced cytotoxicity incubated for 72 hrs by MTT assay

With CC1CCc2c(sc3nc(-c4cccnc4)nc(N4CCN(C(C(N)=O)c5ccccc5)CC4)c23)C1 (stereo unspecified) the EC50 [1] was 0.748 µM, the EC50 [2] was 0.728 µM and the EC50 [3] was 1.31 µM. For the same compound, the EC50 [4] was 2.73 µM, the EC50 [5] was 2.69 µM and the EC50 [6] was 0.361 µM.
